For orientation: DC50 means the midpoint of the concentration-degradation curve. For orientation: Dmax means the greatest extent of degradation seen.

The results in this text go back to patent US20230265116A1, “DEGRADATION OF (EGFR) BY CONJUGATION OF EGFR INHIBITORS WITH E3 LIGASE LIGAND AND METHODS OF USE” (BEIGENE, LTD., priority 2020, published 2023).

For assay [1], the system named is EGFR Del19/T790M/C797S (BaF3-DTC cells). Kind of assay: EGFR degradation HTRF assay, BaF3-DTC cells. The class given is cell-based. The conditions noted are these: 16h treatment; for DTC Dmax (%): maximum percentage of degradation; for DC50: read-out: DTC DC50. The gist of the method: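 BaF3 (WT, Del19/T790M/C797S) and HCC827 cells exposed 16 h at 37 °C, 5% CO2 to compounds in 0.2% DMSO medium, 8 doses from 10 uM top, 5-fold steps. Lysates read by HTRF (665/620 nm); degradation % vs DMSO control, DC50 from four-parameter fit, Dmax as maximal degradation.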

The target in assay [2] is T1, EGFR L858R/T790M/C797S (BaF3-LTC cells) (Homo sapiens, UniProt P00533, C797S/L858R/T790M).
T1 construct: expressed in transfected cells; host or cells: BaF3
Briefly: EGFR degradation HTRF assay, BaF3-LTC cells. The conditions noted are these: BaF3-LTC, 16h treatment; for Dmax: maximum percentage of degradation, read-out: LTC Dmax (%); for DC50: read-out: LTC DC50. The class given is cell-based. The gist of the method:
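Cells treated 16 h at 37 °C, 5% CO2 in medium with 0.2% DMSO; top final concentration 10 uM, 5-fold dilution, 8 doses. Lysates read by HTRF (665/620 nm); degradation % versus DMSO high control, DC50 from four-parameter fit, Dmax as maximal degradation.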
For orientation: TR-FRET usually uses a lanthanide donor and a delayed reading to cut background.

T1 sequence (P00533 25-1210 T790M/C797S/L858R): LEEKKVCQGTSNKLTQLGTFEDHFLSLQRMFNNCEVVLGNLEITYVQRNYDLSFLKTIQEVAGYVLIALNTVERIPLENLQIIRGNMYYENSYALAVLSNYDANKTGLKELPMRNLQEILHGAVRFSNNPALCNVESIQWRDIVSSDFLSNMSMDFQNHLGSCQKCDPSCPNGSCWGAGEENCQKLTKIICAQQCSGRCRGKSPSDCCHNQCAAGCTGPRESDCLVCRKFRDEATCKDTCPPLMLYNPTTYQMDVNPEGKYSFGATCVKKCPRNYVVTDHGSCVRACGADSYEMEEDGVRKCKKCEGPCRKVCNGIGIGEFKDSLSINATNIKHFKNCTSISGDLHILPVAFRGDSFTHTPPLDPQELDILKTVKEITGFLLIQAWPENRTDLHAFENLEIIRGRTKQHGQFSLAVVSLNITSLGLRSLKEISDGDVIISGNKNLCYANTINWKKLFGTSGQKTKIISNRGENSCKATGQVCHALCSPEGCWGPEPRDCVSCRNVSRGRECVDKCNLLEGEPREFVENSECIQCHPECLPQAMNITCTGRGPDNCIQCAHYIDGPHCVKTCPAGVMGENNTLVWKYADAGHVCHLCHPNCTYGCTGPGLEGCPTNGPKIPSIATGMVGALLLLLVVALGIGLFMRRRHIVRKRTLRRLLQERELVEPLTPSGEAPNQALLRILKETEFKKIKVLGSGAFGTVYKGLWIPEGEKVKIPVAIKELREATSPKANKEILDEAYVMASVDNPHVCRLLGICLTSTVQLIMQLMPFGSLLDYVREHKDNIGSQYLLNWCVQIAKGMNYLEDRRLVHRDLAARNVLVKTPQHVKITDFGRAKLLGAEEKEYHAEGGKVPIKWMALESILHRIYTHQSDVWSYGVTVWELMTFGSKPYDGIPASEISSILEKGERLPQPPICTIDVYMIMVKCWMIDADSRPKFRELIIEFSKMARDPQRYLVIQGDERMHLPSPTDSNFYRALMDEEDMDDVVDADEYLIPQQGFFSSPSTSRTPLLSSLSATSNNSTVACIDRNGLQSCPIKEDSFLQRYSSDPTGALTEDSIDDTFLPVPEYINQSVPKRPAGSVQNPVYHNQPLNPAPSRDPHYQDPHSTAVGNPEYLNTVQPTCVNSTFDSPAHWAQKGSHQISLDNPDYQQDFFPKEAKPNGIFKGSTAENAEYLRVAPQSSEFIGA

As to `CCc1cc(Nc2ncc(Br)c(Nc3ccc4nc(C)ccc4c3P(C)(C)=O)n2)c(OC)cc1N1CCC(N2CCN(CCN(C)c3cccc4c3CN(C3CCC(=O)NC3=O)C4=O)CC2)CC1` (stereo not shown) [Example 256, 3-(4-((2-(4-(1-(4-((5-bromo-4-((5-(dimethylphosphoryl)-2-methylquinolin-6-yl)amino)pyrimidin-2-yl)amino)-2-ethyl-5-methoxyphenyl)piperidin-4-yl)piperazin-1-yl)ethyl)(methyl)amino)-1-oxoisoindolin-2-yl)piperidine-2,6-dione], in assay [1], the “DTC Dmax (%)” value was found to be 94.38% and the half-maximal degradation concentration (DC50) was determined as 1.78 nM. For the same compound, in assay [2], the Dmax worked out at 91.8% and the half-maximal degradation concentration (DC50) was determined as 7.84 nM.

For `CCc1cc(Nc2ncc(Br)c(Nc3ccc4nc(C)ccc4c3P(C)(C)=O)n2)c(OC)cc1N1CCC(N2CCN(CCc3ccc4nn(C5CCC(=O)NC5=O)cc4c3)CC2)CC1` (stereo not shown) [Example 257, 3-(5-(2-(4-(1-(4-((5-bromo-4-((5-(dimethylphosphoryl)-2-methylquinolin-6-yl)amino)pyrimidin-2-yl)amino)-2-ethyl-5-methoxyphenyl)piperidin-4-yl)piperazin-1-yl)ethyl)-2H-indazol-2-yl)piperidine-2,6-dione], in assay [1], the “DTC Dmax (%)” value turned out to be 93.75% and the DC50 was 3.94 nM. Besides, in assay [2], the Dmax stood at 90.7% and the DC50 was 17.4 nM.

As for `CCc1cc(Nc2ncc(Br)c(Nc3ccc4nccnc4c3P(C)(C)=O)n2)c(OC)cc1N1CCC(N2CCN(CC3CCN(c4cccc(C5CCC(=O)NC5=O)c4)CC3)CC2)CC1` (stereo not shown) [Example 264, 3-(3-(4-((4-(1-(4-((5-bromo-4-((5-(dimethylphosphoryl)quinoxalin-6-yl)amino)pyrimidin-2-yl)amino)-2-ethyl-5-methoxyphenyl)piperidin-4-yl)piperazin-1-yl)methyl)piperidin-1-yl)phenyl)piperidine-2,6-dione], in assay [1], the “DTC Dmax (%)” value is 74.58% and the 50% degradation concentration (DC50) is 17.1 nM. Besides, in assay [2], the greatest degradation seen (Dmax) was determined as 86.2% and the DC50 came to 61 nM.

As to `COc1cc(N2CCC(N3CC4CC(C3)N4CCC3CCN(c4cc(F)c(C5CCC(=O)NC5=O)c(F)c4)CC3)CC2)c(C)cc1Nc1ncc(Br)c(Nc2ccc3nccnc3c2P(C)(C)=O)n1` (stereo not shown) [Example 266, 3-(4-(4-(2-(3-(1-(4-((5-bromo-4-((5-(dimethylphosphoryl)quinoxaline-6-yl)amino)pyrimidin-2-yl)amino)-5-methoxy-2-methylphenyl)piperidin-4-yl)-3,6-diazabicyclo[3.1.1]heptan-6-yl)ethyl)piperidin-1-yl)-2,6-difluorophenyl)piperidine-2,6-dione], in assay [1], the “DTC Dmax (%)” value is given as 83.88% and the DC50 was 50.3 nM. Moreover, in assay [2], the Dmax came out at 73.6% and the DC50 was 81.9 nM.

Turning to `COc1cc(N2CCC(N3C[C@H]4C[C@@H]3CN4CCC3CCN(c4cc(F)c(C5CCC(=O)NC5=O)c(F)c4)CC3)CC2)c(C)cc1Nc1ncc(Br)c(Nc2ccc3nccnc3c2P(C)(C)=O)n1` (stereo partly drawn) [Example 267, 3-(4-(4-(2-((1R,4R)-5-(1-(4-((5-bromo-4-((5-(dimethylphosphoryl)quinoxalin-6-yl)amino)pyrimidin-2-yl)amino)-5-methoxy-2-methylphenyl)piperidin-4-yl)-2,5-diazabicyclo[2.2.1]heptan-2-yl)ethyl)piperidin-1-yl)-2,6-difluorophenyl)piperidine-2,6-dione], in assay [1], the “DTC Dmax (%)” value is given as 93.96% and the half-maximal degradation concentration (DC50) came to 17.9 nM. In addition, in assay [2], the Dmax was determined as 90.3% and the 50% degradation concentration (DC50) is 47.7 nM.

Consider `COc1cc(N2CCC(N3C[C@@H]4C[C@H]3CN4CCC3CCN(c4cc(F)c(C5CCC(=O)NC5=O)c(F)c4)CC3)CC2)c(C)cc1Nc1ncc(Br)c(Nc2ccc3nccnc3c2P(C)(C)=O)n1` (stereo partly drawn) [Example 268, 3-(4-(4-(2-((1S,4S)-5-(1-(4-((5-bromo-4-((5-(dimethylphosphoryl)quinoxalin-6-yl)amino)pyrimidin-2-yl)amino)-5-methoxy-2-methylphenyl)piperidin-4-yl)-2,5-diazabicyclo[2.2.1]heptan-2-yl)ethyl)piperidin-1-yl)-2,6-difluorophenyl)piperidine-2,6-dione], for which, in assay [1], the “DTC Dmax (%)” value came to 93.75% and the 50% degradation concentration (DC50) amounted to 22 nM. Besides, in assay [2], the Dmax was determined as 90.5% and the half-maximal degradation concentration (DC50) was found to be 33.5 nM.

`CCc1cc(Nc2ncc(Cl)c(Nc3ccc4nccnc4c3P(C)(C)=O)n2)c(OC)cc1N1CCC(N2CCN(CCC3CCN(c4cc(F)c(C5CCC(=O)NC5=O)c(F)c4)CC3)CC2)CC1` (stereo not shown) [Example 269, 3-(4-(4-(2-(4-(1-(4-((5-chloro-4-((5-(dimethylphosphoryl)quinoxalin-6-yl)amino)pyrimidin-2-yl)amino)-2-ethyl-5-methoxyphenyl)piperidin-4-yl)piperazin-1-yl)ethyl)piperidin-1-yl)-2,6-difluorophenyl)piperidine-2,6-dione]: in assay [1], the “DTC Dmax (%)” value is given as 95.39% and the DC50 turned out to be 21.5 nM. For the same compound, in assay [2], the Dmax came to 88.8% and the DC50 was 43.7 nM.

For the compound `CCc1cc(Nc2ncc(Br)c(Nc3ccc4nccnc4c3P(C)(C)=O)n2)c(OC)cc1N1CCC(N2CCN(C(=O)CC3CCN(c4cc(F)c(C5CCC(=O)NC5=O)c(F)c4)CC3)CC2)CC1` (stereo not shown) [Example 274, 3-(4-(4-(2-(4-(1-(4-((5-bromo-4-((5-(dimethylphosphoryl)quinoxalin-6-yl)amino)pyrimidin-2-yl)amino)-2-ethyl-5-methoxyphenyl)piperidin-4-yl)piperazin-1-yl)-2-oxoethyl)piperidin-1-yl)-2,6-difluorophenyl)piperidine-2,6-dione], in assay [1], the “DTC Dmax (%)” value is 89.85% and the 50% degradation concentration (DC50) amounted to 15.9 nM. In addition, in assay [2], the Dmax was determined as 96% and the half-maximal degradation concentration (DC50) came to 24.3 nM.

`CCc1cc(Nc2ncc(Br)c(Nc3ccc4nccnc4c3P(C)(C)=O)n2)c(OC)cc1N1CCC(N2CCN(CCc3ccc(C4(C)CCC(=O)NC4=O)cc3)CC2)CC1` (stereo not shown) [Example 280, 3-(4-(2-(4-(1-(4-((5-bromo-4-((5-(dimethylphosphoryl)quinoxalin-6-yl)amino)pyrimidin-2-yl)amino)-2-ethyl-5-methoxyphenyl)piperidin-4-yl)piperazin-1-yl)ethyl)phenyl)-3-methylpiperidine-2,6-dione]: in assay [1], the “DTC Dmax (%)” value was 68.21% and the DC50 is 152 nM. In assay [2], the greatest degradation seen (Dmax) worked out at 76% and the half-maximal degradation concentration (DC50) is 248 nM.

For the compound `CCc1cc(Nc2ncc(Br)c(Nc3ccc4nccnc4c3P(C)(C)=O)n2)c(OC)cc1N1CCC(N2CCN(C3CCN(c4ccc(C5CCC(=O)NC5=O)cc4)C3)CC2)CC1` (stereo not shown) [Example 281, 3-(4-(3-(4-(1-(4-((5-bromo-4-((5-(dimethylphosphoryl)quinoxalin-6-yl)amino)pyrimidin-2-yl)amino)-2-ethyl-5-methoxyphenyl)piperidin-4-yl)piperazin-1-yl)pyrrolidin-1-yl)phenyl)piperidine-2,6-dione], in assay [1], the “DTC Dmax (%)” value is 67.1% and the DC50 is 43.3 nM. Moreover, in assay [2], the maximal degradation (Dmax) came to 74.6% and the half-maximal degradation concentration (DC50) was 63.3 nM.
